Results reported in patent publication US6673372B1, “Crystalline Efavirenz” (Bristol-Myers Squibb Pharma Company, priority 1998, dated 2004).

Assay: Relative stability of the crystalline forms of Efavirenz
Format: physicochemical
Description: Five Forms designated as Form 1, Form 2, Form 3, form 4, Form 5 have been identified. Each Form is distinguishable from the other forms by x-ray powder diffraction (XRD) and differential scanning calorimetry (DSC). Each form can be isolated in substantially pure form under the conditions described. Further, the forms may be interconverted by procedures taught herein.
It has a melting point of about 138° C. to about 140° C., which is the highest of the four forms. Due to its increased stability, it is commonly used for drug formulation. All other forms may be converted into Form 1 during drying at about 60° C. to about 110° C. Conversion and drying is preferably done in a dryer oven at about 70° C. to about 110° C. under reduced pressure. More preferred is about 75° C. to about 85° C. Form 5 is converted to Form 1 by heating to 95° C under reduced pressure. Forms 2 and 3 may also be converted into Form 1 using a hydrocarbon slurry at about 65° C. to about 75° C. Heptane is the most preferred hydrocarbon for this conversion. Form 4, however, may not convert to Form 1 under these conditions because it is soluble at about 70° C. Form 1 may be directly crystallized from heptane when the saturated solution is seeded at about 60° C. to about 75° C. and held at about this temperature until Form 1 starts crystallizing.
The thermal properties of Efavirenz were characterized with differential scanning calorimetry using a TA Instruments DSC 910, with data analysis via a TA Instruments Thermal Analyzer 2100. Samples were placed in sealed aluminum pans for analysis with an empty aluminum pan serving as the reference. Heating rates of 5° C. per minute or 10° C. per minute were employed over a temperature range of 25° C. to 200° C. The instrument was calibrated with a indium standard.

In the case of `O=C1Nc2ccc(Cl)cc2[C@@](C#CC2CC2)(C(F)(F)F)O1` [Form 1, (S)-6-chloro-4-cyclopropylethynyl-4-trifluoromethyl-1,4-dihydro-2H-3,1-benzoxazin-2-one], the “thermodynamic stability among the crystalline forms” value (solid forms compared, highest melting point) is reported as “most thermodynamically stable form”.
With `O=C1Nc2ccc(Cl)cc2[C@@](C#CC2CC2)(C(F)(F)F)O1` [Form 2, (S)-6-chloro-4-cyclopropylethynyl-4-trifluoromethyl-1,4-dihydro-2H-3,1-benzoxazin-2-one] the stability (inferred from the melting point observed by differential scanning calorimetry) was “exceptional stability”.
For `O=C1Nc2ccc(Cl)cc2[C@@](C#CC2CC2)(C(F)(F)F)O1` [Form 3, (S)-6-chloro-4-cyclopropylethynyl-4-trifluoromethyl-1,4-dihydro-2H-3,1-benzoxazin-2-one], the “stability of the form in solution slurries” value (solution slurries of Efavirenz at room temperature) was “most stable form”.
With `O=C1Nc2ccc(Cl)cc2[C@@](C#CC2CC2)(C(F)(F)F)O1` [Form 5, (S)-6-chloro-4-cyclopropylethynyl-4-trifluoromethyl-1,4-dihydro-2H-3,1-benzoxazin-2-one] the “thermodynamic stability among the crystalline forms” value (below 40° C.) was “most thermodynamically stable crystalline form”.
